Measurements taken from ChEMBL document CHEMBL1201862, “PubChem BioAssay data set” (2004).
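Compound exposure: 48 hours, 5 concentrations, 96-well plates. GI50: concentration for 50% inhibition of growth.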 The source made the active and inactive calls. Rule as the data show it: active = GI50 up to about 1.1 µM and inactive = higher.

Tests used:
Test in all cases: inhibition of tumour cell growth, NCI panel, 48 h
ACHN = test system: ACHN
MDA-MB-435 = test system: MDA-MB-435
SK-MEL-5 = test system: SK-MEL-5
A498 = test system: A498
OVCAR-8 = test system: OVCAR-8
SK-OV-3 = test system: SK-OV-3
SK-MEL-28 = test system: SK-MEL-28
M14 = test system: M14
CAKI-1 = test system: CAKI-1
U-251 = test system: U-251
SK-MEL-2 = test system: SK-MEL-2
LOX IMVI = test system: LOX IMVI
MCF7 = test system: MCF7
786-0 = test system: 786-0
IGROV-1 = test system: IGROV-1
NCI-H460 = test system: NCI-H460
SW-620 = test system: SW-620
SF-539 = test system: SF-539
RPMI-8226 = test system: RPMI-8226

Measured: GI50

C[C@]12O[C@@]3(C)O[C@@]3(C)[C@]3(C)O[C@]3(C)[C@@]1(C)O2
inactive: ACHN > 100 µM | MDA-MB-435 > 100 µM | SK-MEL-5 > 100 µM | A498 > 100 µM | OVCAR-8 > 100 µM | SK-OV-3 > 100 µM | SK-MEL-28 > 100 µM | M14 > 100 µM | CAKI-1 > 100 µM | U-251 > 100 µM | SK-MEL-2 > 100 µM | LOX IMVI > 100 µM | MCF7 > 100 µM | 786-0 > 100 µM

C=CCOc1ccc(C(=N/NC(=O)c2ccccc2)/N=N/c2ccc([N+](=O)[O-])cc2)cc1OC
inactive: ACHN > 100 µM | MDA-MB-435 > 100 µM | SK-MEL-5 76.6 µM | IGROV-1 > 100 µM | NCI-H460 64.1 µM | A498 > 100 µM | OVCAR-8 > 100 µM | SK-MEL-28 > 100 µM | SW-620 > 100 µM | M14 > 100 µM | CAKI-1 > 100 µM | U-251 > 100 µM | SF-539 > 100 µM | SK-MEL-2 > 100 µM | LOX IMVI 82.6 µM | MCF7 > 100 µM | 786-0 > 100 µM

CCCNC(=O)Cn1c(-c2ccccc2)cc2ccccc21
inactive: ACHN 71.8 µM | MDA-MB-435 77.3 µM | SK-MEL-5 30.5 µM | IGROV-1 43.9 µM | NCI-H460 92.3 µM | RPMI-8226 > 100 µM | OVCAR-8 > 100 µM | SK-OV-3 29.4 µM | SK-MEL-28 92.3 µM | SW-620 > 100 µM | M14 > 100 µM | CAKI-1 52 µM | U-251 > 100 µM | SF-539 > 100 µM | SK-MEL-2 69.8 µM | LOX IMVI > 100 µM | MCF7 37.5 µM | 786-0 54 µM

C[C@]12CCC(=O)O[C@H]1CCCCO2
inactive: MDA-MB-435 > 100 µM | SK-MEL-5 > 100 µM | IGROV-1 > 100 µM | NCI-H460 > 100 µM | A498 > 100 µM | OVCAR-8 > 100 µM | SK-OV-3 > 100 µM | SK-MEL-28 > 100 µM | SW-620 > 100 µM | M14 > 100 µM | CAKI-1 > 100 µM | U-251 > 100 µM | SF-539 > 100 µM | SK-MEL-2 > 100 µM | LOX IMVI > 100 µM | MCF7 > 100 µM | 786-0 > 100 µM
